# Measurements: US5264148A, “Moisture scavenging oxazolidines” (Angus Cheical Company, priority 1990, dated 1993)
# Where two headings read alike, the source gives them in different places.
# Tests used:
# [1] = Comparison of water-scavenging activity in pigment millbase (GC determination of remaining water)
# Excerpt: The water-scavenging activity of 4-ethyl-2-isopropyl oxazolidine (BBA), 1-aza-3,7-dioxo-2,8-diisopropyl-5-ethylbicyclo (3.3.0) octane (EBA), p-toluenesulfonyl isocyanate (PTSI), isophorone diisocyanate (IPDI), and sodium potassium aluminosilicate (SPAS) were compared in pigment millbase formulation. Formulations of this type are representative of pigment formulations used in moisture-curing urethane coating systems. The following millbase formulation was used: […]
# The following procedure was used to prepare the millbase. All the materials were weighed out and added under agitation into a pot. Soft Resin P-65, obtained from Mobay Corp., is a 65% synthetic (non-reactive polyester) resin in solvent Naphtha 100 and is employed as a grind aid. CAB 551, obtained from Eastman Chemical Products, Inc., Kingsport, Tenn., is cellulose acetate butyrate ester and was employed as a rheology aid. CAB 551 was dissolved in PMA. PMA is propylene glycol monomethyl ether acetate obtained from Eastman Chemical Products, Inc. The solution of CAB 551 in PMA included 33% CAB 551 by weight. Anti-Terra-U is a wetting and dispersing additive obtained from BYK-Chemie U.S.A., Wallingford Conn., and is a solution of a salt of unsaturated polyamine amides and higher molecular weight acidic esters. Ektasolve-EEP, obtained from Eastman Chemicals Products, Inc., is ethyl-3-ethoxypropionate stabilized with 2,6-di-tert-butyl- p-cresol, and was employed as a solvent. M-P-A 2000X, obtained from Rheox, Inc., Hightstown, N.J., was employed as an antisettling agent. R-960-TiO2 is a titanium dioxide pigment obtained from E.I. du Pont Nemours & Co., Inc., Wilmington, Del.
# Once the ingredients were added to the vessel they were continuously agitated until a 7 Hegman grind value was obtained for the mixture. The millbase was then heated to 60° C. A portion of the mixture was removed, and the percent of water remaining was determined using gas chromatography. Using the determined percentage of water, the minimum amount of the water-scavenger compound to be added to the millbase was calculated using the following equation:
# Minimum weight of water scavenger=wt. mb.×wt. % H2 O×(1/MW
# H2 O×mol.×MW scavenger/purity)
# The determined amount of each moisture-scavenger was added to one millbase. Six millbases were prepared. Each of the five moisture-scavengers listed above were tested in a millbase with one millbase remaining untreated as a control. Once the millbases were treated, they were mixed continuously. At 30 minutes, 60 minutes, 120 minutes, 180 minutes, 240 minutes, and 300 minutes, samples of the millbase were removed and the amount of water remaining in the millbase was determined using gas chromatography. In each trial two moles of moisture scavenger was used for every mole of water. The results of 6 trials are summarized below in Table I and graphically represented in FIG. 1.
# [2] = test system: four strains of Salmonella typhimurium; assay: Ames Mutagenicity Assay; format: cell-based; details: presence and absence of exogenous mammalian activation system
# Experimental: The Ames Mutagenicity Assay was performed to determine the mutagenicity of the compound. The assay evaluates the mutagenic potential of a test substance by its ability to induce back mutations at selected loci of four strains of Salmonella typhimurium in the presence and absence of an exogenous mammalian activation system.
# [3] = Acute oral toxicity (TSCA, 40 CFR Part 798, 798.1175); details: rat, in vivo, dose levels 1.80, 1.50 and 1.30 g/kg, male and female Sprague-Dawley rats
# Experimental: Based upon the standards of the Toxic Substance Control Act (TSCA), 40 CFR, Part 798, Subpart A, General Toxicity Testing, Acute Oral Toxicity, 798.1175, July 1989, 2-isopropyl-4-ethyl oxazolidine was evaluated for its potential to produce death following oral administration at dose levels of 1.80g/kg, 1.50 g/kg, and 1.30 g/kg, to male and female Sprague-Dawley rates.
# [4] = test system: skin of New Zealand White Rabbits; assay: Primary dermal irritation (TSCA, Section 798.4470); format: in vivo; details: single topical application, TSCA guidelines
# Experimental: Based upon the standards of the Toxic Substances Control Act (TSCA), 40 CFR, Part 798, Subpart E, Specific Organ/Tissue Toxicity, Primary Dermal Irritation, Section 798.4470, July 1989, 2-isopropyl-4-ethyl oxazolidine was evaluated for its potential to produce primary dermal irritation after a single topical application to the skin of New Zealand White Rabbits.
# [5] = test system: male and female New Zealand White albino rabbits; assay: Acute dermal toxicity (TSCA, 789.1100); format: in vivo; details: topical, 2 g/Kg
# Experimental: Based upon the standards of the Toxic Substance Control Act (TSCA), 40 CFR, Part 798, Subpart A, General Toxicity Testing, Acute Dermal Toxicity, 789.1100, July 1989, the compound was evaluated for its potential to produce systematic toxicity or death following topical application at a dose of 2 g/Kg in male and female New Zealand White albino rabbits.
# [6] = Acute oral toxicity (FIFRA, 40 CFR 162); format: in vivo, Sprague-Dawley derived, albino rats; details: rat, in vivo, undiluted, male and female Sprague-Dawley rats
# Experimental: (§1) The acute oral toxicity of the compound was evaluated in compliance with the conditions specified in the Regulation for the Enforcement of Federal Insecticide, Fungicide and Rodenticide Act (40 CFR 162). The compound was administered undiluted at a dosage of 5.0 g/kg to one group of five male and five female, Sprague-Dawley derived, albino rats. […] Animals were weighed seven days after treatment. At the end of the 14-day observation period, the rats were weighed, killed, and given a gross necropsy.
# [7] = test system: male and female Sprague-Dawley derived albino rats; assay: Acute oral toxicity (FIFRA, 40 CFR 162); format: in vivo; details: undiluted, 5.0 g/kg, rats
# Experimental: as §1
# [8] = Acute dermal toxicity (FIFRA, 40 CFR 162); format: in vivo, New Zealand White Rabbits; details: rabbit, in vivo, topical or ocular, undiluted, male and female New Zealand White rabbits
# Experimental: (§2) The acute dermal toxicity of the compound was evaluated in compliance with the conditions specified in the Regulation for the Enforcement of Federal Insecticide, Fungicide and Rodenticide Act (40 CFR 162). The compound was applied undiluted to the skin of one group of five male and five female New Zealand White Rabbits at a dosage of 2.0 g/kg for 24 hours. […] Animals were weighted 7 days after treatment. At the end of the 14day observation period, the rabbits were weighed, killed, and given a gross necropsy.
# [9] = test system: skin of male and female New Zealand White Rabbits; assay: Acute dermal toxicity (FIFRA, 40 CFR 162); format: in vivo; details: undiluted, 2.0 g/kg for 24 hours, rabbits
# Experimental: as §2
# [10] = test system: intact skin of New Zealand White rabbits; assay: Primary skin irritation (FIFRA, 40 CFR 162); format: in vivo
# Experimental: The primary skin irritation of the compound was evaluated in compliance with the conditions specified in the Regulation for the Enforcement of Federal Insecticide, Fungicide and Rodenticide Act (40 CFR 162). A small amount of the compound (0.5 ml) was applied to an intact skin site on six New Zealand White rabbits (three males and three females) and allowed to remain in contact with the skin for 4 hours. The sites were scored for erythema and edema and checked for tissue damage 1/2 hour after the end of the application period (41/2 hour reading) and […] (24-hour reading) and at 48 and 72 hours.
# [11] = test system: eye of New Zealand White rabbits; assay: Primary eye irritation (FIFRA, 40 CFR 162); format: in vivo
# Experimental: The primary […] irritation of the compound was evaluated in compliance with the conditions specified in the Regulation for the Enforcement of Federal Insecticide, Fungicide and Rodenticide Act (40 CFR 162). A small amount of the undiluted compound (0.1 ml) was applied to the right or left eye of six New Zealand White rabbits (one male and five females). The compound was allowed to remain without rinsing in the eyes of the animals. The eyes were graded for corneal changes, conjunctival changes, and changes in the iris one hour after application, and one, two, three, four, and seven days later.
# [12] = 2 hrs, millbase heated to 60° C., two moles of scavenger per mole of water
smiles,measurement,setting,value
"CC1(C)CC(N=C=O)CC(C)(CN=C=O)C1 (stereo not drawn) [IPDI, isophorone diisocyanate, reference compound]",% H2O Remaining After 2 hrs.,[1]; [12],< .02%
"Cc1ccc(S(=O)(=O)N=C=O)cc1 [PTSI, p-toluenesulfonyl isocyanate, reference compound]",% H2O Remaining After 30 min.,"[1]; 30 min, millbase heated to 60° C., two moles of scavenger per mole of water",< .05%
same,% H2O Remaining After 60 min.,"[1]; 60 min, millbase heated to 60° C., two moles of scavenger per mole of water",< .05%
same,% H2O Remaining After 2 hrs.,[1]; [12],< .05%
"CCC1COC(C(C)C)N1 (stereo not drawn) [BBA, 4-ethyl-2-isopropyl oxazolidine]",% H2O Remaining After 30 min.,[1],.20%
same,% H2O Remaining After 60 min.,[1],.19%
same,% H2O Remaining After 2 hrs.,[1],.13%
same,mutagenicity (Ames),[2],non-mutagenic
same,LD50,[3],1600 mg/kg
same,primary dermal irritation classification,[4],moderate irritant
same,acute dermal toxicity classification,[5]; TSCA guidelines,non-toxic
same,acute dermal toxicity: mortality,[5]; male and female rabbits,absence of mortality
CCC12COC(C(C)C)N1C(C(C)C)OC2 (stereo not drawn) [EBA],% H2O Remaining After 30 min.,[1],.08%
same,% H2O Remaining After 60 min.,[1],.08%
same,% H2O Remaining After 2 hrs.,[1],.06%
same,mutagenicity (Ames),[2],non-mutagenic
same,LD50 at 336 h,[6],> 5000 mg/kg
same,clinical changes,[7]; 14-day observation,"urine and/or fecal stains, mucoid feces, and alopecia"
same,deaths,[7]; 14-day observation,No deaths occurred
same,gross necropsy findings,[7]; end of 14-day observation,"one rat with darkened and mottled lungs, otherwise no gross changes"
same,LD50 at 336 h,[8],> 2000 mg/kg
same,clinical changes,[9]; 14-day observation,No clinical changes were observed
same,deaths,[9]; 14-day observation,No deaths occurred
same,gross necropsy findings,[9]; end of 14-day observation,no significant gross changes
same,most frequently observed irritative effects,[9],erythema and desquamation
same,persistence of irritation,"[10]; 0.5 ml, 4 hours contact, 72 hours after application",Mild irritation persisted 72 hours after application
same,Primary Irritation Index,"[10]; rabbit, in vivo",2.7
same,tissue damage (corrosion),"[10]; rabbit, in vivo",No evidence of tissue damage (corrosion)
same,eye irritation persistence,"[11]; 0.1 ml undiluted, without rinsing, six rabbits",irritation persisting for seven days
same,corneal opacity,"[11]; rabbit, in vivo",corneal opacity persisting for less than seven days
